Format in all cases: physicochemical
Series [1] is described as follows: Rough solubility in different solvent systems at room temperature. The following applies: 50 °C, organic solvent or mixture, thermodynamic from solid, *Dissolve to clear at 50° C.
Assay in series [2]: as above
The method, then:
The rough solubility of the free base anhydrous crystal form A of the compound of formula I obtained in Example 1 and the monohydrate crystal form C of the sulfate salt of the compound of formula I obtained in Example 4 was tested in different solvent systems at room temperature. About 2 mg of the solid sample was weighed into an HPLC vial, and then the corresponding solvent was gradually (50/50/200/700 μL in sequence) added thereto and shaken until the solid dissolved to clear. If the sample was still not dissolved to clear after the addition of 1 mL of solvent, no more solvent would be added. The rough solubility ranges calculated from the mass of the solid sample, the volume of the added solvent, and the observed dissolution phenomena are shown in Table 25-1 and Table 25-2.

Series [3] in a line: Hygroscopicity by dynamic vapor sorption (DVS) at 25° C. The method, then:
(3) Dynamic vapor sorption (DVS): Dynamic vapor sorption (DVS) curves were collected on DVS Intrinsic from SMS (surface measurement systems). The relative humidity at 25° C. was corrected using the deliquescence points of LiCl, Mg(NO3)2, and KCl.
The hygroscopicity of the sample of the monohydrate crystal form C of the sulfate salt obtained in […] was evaluated through the DVS test from 0% RH to […] at 25° C.

Series [4] is described as follows: Suspension competition test between crystal forms of the sulfate salt (anhydrous/hydrate transformation relationship). Here is the method:
A suspension competition test between the anhydrous crystal form A of the sulfate salt obtained in Example 5 and the anhydrous crystal form D of the sulfate salt obtained in Example 19 was set up, including conditions of 5° C., 25° C., and 50° C. in methanol and 25° C. in ACN. (Test numbers are from A1 to A4)
A suspension competition test between the monohydrate crystal form C of the sulfate salt obtained in Example 4 and the anhydrous crystal form A of the sulfate salt obtained in Example 5 was set up at room temperature, including a suspension competition test in ACN/H2O (aw=0/0.2/0.4/0.6/0.8) of different water activities at room temperature. (Test numbers are from B1 to B5)
The specific steps are as follows: 1) saturated solutions of sulfate salt in different solvent systems at room temperature were prepared; 2) equal mass of the corresponding samples of crystal form of sulfate salt (about 5 mg each) were added to 1 mL of saturated solution to form a suspension, respectively; 3) the suspension was magnetically stirred at corresponding temperature; 4) the remaining solid was separated and tested by XRPD.

The nature of series [5]: Solid state stability (XRPD crystal form, HPLC purity). The following applies: for Purity / Purity/initial purity / Initial purity: HPLC; for Crystal form transition: XRPD; for Initial purity: before the stability test, monohydrate crystal form C of sulfate salt. Here is the method: (6) High performance liquid chromatography (HPLC): Purity and solubility in the test were determined by Agilent 1260 high performance liquid chromatograph, and the analytical conditions are shown in Table 4.
Appropriate amounts of the samples of the monohydrate crystal form C of the sulfate salt […], and then placed for one week in an open state of 40° C./75% RH. Solid samples separated under different conditions were respectively subjected to XRPD test to evaluate the transition of crystal forms, and subjected to HPLC test to evaluate purity and chemical stability.

[6] abbreviates: 40° C./75% RH/1 week, open, listed as Example 4.
[7] abbreviates: 40° C./75% RH/1 week, open, listed as Example 9.
Setting [8] is: 60° C./sealed/1 week, listed as Example 4.
Where [9] appears, read: 60° C./sealed/1 week, listed as Example 9.
The mark [10] stands for this setting: sealed 24 hours at 60° C., open one week at 40° C./75% RH, two batches.

The record followed here is US20240352040A1, “CRYSTAL FORM OF RIPK1 INHIBITOR, ACID SALT THEREOF, AND CRYSTAL FORM OF ACID SALT THEREOF” (GENFLEET THERAPEUTICS (SHANGHAI) INC., priority 2021, published 2024).

Converted amounts (≈) assume the structure as drawn. Where a name gives a salt, the structure may show the parent alone. Read-outs that look alike come from different tables or passages of the source.

By solubility is commonly meant how much of the substance goes into solution per volume. With `Nc1nc2cc(-c3cnc4c(c3)C(=O)N(Cc3cc(OC(F)(F)F)ccc3F)CC4)ccn2n1`, the solubility in series [1] (isopropanol) is < 2400 µg/mL; in series [2] (dimethyl sulfoxide, organic solvent or mixture, thermodynamic from solid, Dimethyl sulfoxide, read-out: Solubility) it was > 42000 µg/mL.
Take `Nc1nc2cc(-c3cnc4c(c3)C(=O)N(Cc3cc(OC(F)(F)F)ccc3F)CC4)ccn2n1` [free base anhydrous crystal form A, 3-(2-amino-[1,2,4]triazolo[1,5-a]pyridin-7-yl)-6-(2-fluoro-5-(trifluoromethoxy)benzyl)-7,8-dihydro-1,6-naphthyridin-5(6H)-one]: the solubility in series [1] (dimethyl sulfoxide) was 7700 to 23000 µg/mL (≈ 16.3 to 48.7 mM); in series [2] (Methanol) it was “S < 1.8 mg/mL”; in series [2] (acetone, organic solvent or mixture, thermodynamic from solid, Acetone, read-out: Solubility) it was < 1800 µg/mL; in series [2] (acetonitrile, organic solvent or mixture, thermodynamic from solid, Acetonitrile, read-out: Solubility), < 1900 µg/mL; in series [2] (ethanol, organic solvent or mixture, thermodynamic from solid, Ethanol, read-out: Solubility), < 2200 µg/mL; in series [2] (isopropanol, organic solvent or mixture, thermodynamic from solid, Isopropanol, read-out: Solubility) it was < 1900 µg/mL. Moreover, the solubility is < 1700 µg/mL in series [2] (n-heptane, organic solvent or mixture, thermodynamic from solid, n-Heptane, read-out: Solubility) and < 2100 µg/mL in series [2] (water, thermodynamic from solid, Water, read-out: Solubility).
In the case of `Nc1nc2cc(-c3cnc4c(c3)C(=O)N(Cc3cc(OC(F)(F)F)ccc3F)CC4)ccn2n1` [monohydrate crystal form C of the sulfate salt], the solubility result in series [2] (Acetone) is “S < 2.4 mg/mL”; in series [2] (Acetonitrile) it was “S < 2.4 mg/mL”; in series [2] (Water), “S < 2.4 mg/mL”; in series [2] (n-Heptane), “S < 2.3 mg/mL”. Also, the hygroscopicity assessment result in series [3] (DVS, 25° C.) was “slightly hygroscopic”. For the same molecule, the hygroscopic weight gain entry in series [3] (DVS, 25° C./80% RH) is recorded as “about 0.2700”. Moreover, in series [3] (after DVS test), the “crystal form transition after the DVS test (XRPD)” value is recorded as “no crystal form transition”. The “thermodynamic stability range under different water activities” value in series [4] (room temperature) is reported as “relatively wide”. Besides, the Purity in series [5] (setting [6]) amounted to 99.46%; in series [5] (setting [7]), 99.45%; in series [5] (setting [8]), 99.47%; in series [5] (setting [9]), 99.39%. Also, the Purity/initial purity in series [5] (setting [6]) is 99.98%; in series [5] (setting [7]), 99.93%; in series [5] (setting [8]) it was 99.99%; in series [5] (setting [9]) it was 99.87%. In addition, the Crystal form transition result is “No” in series [5] (40° C./75% RH/1 week, open) and “No” in series [5] (60° C./sealed/1 week). Also, the Initial purity in series [5] (listed as Example 4) amounted to 99.48%; in series [5] (listed as Example 9), 99.52%. In addition, the “change in HPLC purity” value in series [5] (setting [10]) is reported as “do not show any significant decrease”. Also, in series [5] (setting [10]), the “change of crystal form (XRPD)” value is “does not change”.
As to `O=S(=O)(O)O` [sulfate], the “solid form obtained after stirring in water” value in series [4] (water, water activity of about 1) is on record as “free base crystal form A was obtained”.
